Test results from ChEMBL document CHEMBL5050844 (2019).

Experiments:
[1] = Induction of anti-CD3/CD28 antibodies-stimulated human T cell activation at 1 uM assessed fold increase in IL-2 secretion measured by ELISA assay; type: functional, T cell line
[2] = Induction of anti-CD3/CD28 antibodies-stimulated human T cell activation at 4 uM assessed fold increase in IL-2 secretion measured by ELISA assay; type: functional, T cell line
[3] = Induction of anti-CD3/CD28 antibodies-stimulated human T cell activation at 4 uM assessed fold increase in CD25 expression measured by ELISA assay; type: functional, T cell line
[4] = Induction of anti-CD3/CD28 antibodies-stimulated human T cell activation at 0.3 uM assessed fold increase in IL-2 secretion measured by ELISA assay; type: functional, T cell line
[5] = Induction of anti-CD3 antibodies-stimulated human T cell activation at 8 uM assessed fold increase in IL-2 secretion measured by ELISA assay; type: functional, T cell line; also: reference of the scale not given here
[6] = Induction of anti-CD3 antibodies-stimulated human T cell activation at 1 uM assessed fold increase in CD25 expression measured by ELISA assay; type: functional, T cell line; also: reference of the scale not given here
[7] = Induction of anti-CD3/CD28 antibodies-stimulated human T cell activation at 0.3 uM assessed fold increase in CD25 expression measured by ELISA assay; type: functional, T cell line
[8] = Induction of anti-CD3 antibodies-stimulated human T cell activation at 1 uM assessed fold increase in IL-2 secretion measured by ELISA assay; type: functional, T cell line; also: reference of the scale not given here
[9] = Induction of anti-CD3/CD28 antibodies-stimulated human T cell activation at 1 uM assessed fold increase in CD25 expression measured by ELISA assay; type: functional, T cell line
[10] = Induction of anti-CD3 antibodies-stimulated human T cell activation at 8 uM assessed fold increase in CD25 expression measured by ELISA assay; type: functional, T cell line; also: reference of the scale not given here
[11] = molecular target: E3 ubiquitin-protein ligase CBL-B (Homo sapiens, UniProt Q13191); test: Inhibition of N-terminal Avi-tagged human CBL-B (36 to 427 residues) incubated with 60 nM Src kinase for 1.5 hrs followed by incubation with fluorescently labeled UbcH5B-Ub for 1 hr and measured by TR-FRET assay; type: single protein
E3 ubiquitin-protein ligase CBL-B, sequence (Q13191 whole entry, the tested form may be a part): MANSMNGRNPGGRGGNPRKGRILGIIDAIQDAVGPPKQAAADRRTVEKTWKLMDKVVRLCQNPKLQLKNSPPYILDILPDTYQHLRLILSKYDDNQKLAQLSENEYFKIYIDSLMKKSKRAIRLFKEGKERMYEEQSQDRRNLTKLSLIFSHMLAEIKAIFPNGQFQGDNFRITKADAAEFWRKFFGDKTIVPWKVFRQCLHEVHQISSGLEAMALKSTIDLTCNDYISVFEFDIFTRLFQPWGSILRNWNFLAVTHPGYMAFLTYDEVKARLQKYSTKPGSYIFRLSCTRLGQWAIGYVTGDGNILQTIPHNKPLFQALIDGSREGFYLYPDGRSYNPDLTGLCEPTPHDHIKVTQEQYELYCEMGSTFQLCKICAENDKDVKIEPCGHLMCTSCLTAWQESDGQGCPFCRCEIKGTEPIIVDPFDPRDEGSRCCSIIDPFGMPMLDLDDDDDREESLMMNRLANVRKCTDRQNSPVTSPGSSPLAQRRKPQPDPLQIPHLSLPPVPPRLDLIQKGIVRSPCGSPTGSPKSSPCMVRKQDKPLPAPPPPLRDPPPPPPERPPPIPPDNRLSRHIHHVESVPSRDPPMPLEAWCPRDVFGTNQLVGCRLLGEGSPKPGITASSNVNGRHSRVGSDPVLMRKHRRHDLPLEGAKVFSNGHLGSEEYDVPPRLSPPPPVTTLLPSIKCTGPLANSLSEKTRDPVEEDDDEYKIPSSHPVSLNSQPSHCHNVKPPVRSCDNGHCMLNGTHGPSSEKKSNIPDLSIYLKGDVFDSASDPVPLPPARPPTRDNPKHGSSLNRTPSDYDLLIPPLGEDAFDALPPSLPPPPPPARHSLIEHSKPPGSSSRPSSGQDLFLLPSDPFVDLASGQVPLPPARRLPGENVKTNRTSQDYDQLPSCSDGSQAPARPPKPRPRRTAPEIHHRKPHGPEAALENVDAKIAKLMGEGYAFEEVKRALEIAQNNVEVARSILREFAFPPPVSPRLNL

SMILES	fold change (FC) [1]	fold change (FC) [2]	fold change (FC) [3]	fold change (FC) [4]	fold change (FC) [5]	fold change (FC) [6]	fold change (FC) [7]	fold change (FC) [8]	fold change (FC) [9]	fold change (FC) [10]	IC50 [11] [nM]
C[C@H](Cc1nncn1C)c1cccc(NC(=O)c2ccnc(C3CC3)n2)c1	5	>=7.5	1.51	2.51	>=0.201	>=1.001	1.01	>=0.201	1.31	>=1.001	< 100
Cn1cnnc1CC(C)(C)c1cccc(NC(=O)c2cc(C(=O)N3CC[C@H](O)C3)cc(C(F)(F)F)n2)c1	2.51	5	1.01	1.01	>=0.201	0.801	1.01	0.101	1.01	>=1.001	< 100
Cn1cnnc1C(F)(F)[C@](C)(F)c1cccc(N2Cc3c(cc(CN4CC(C(F)F)C4)cc3C(F)(F)F)C2=O)c1	>=7.5	>=7.5	1.31	5	0.151	>=1.001	1.31	>=0.201	1.31	>=1.001	< 100
C[C@H](Sc1nncn1C)c1cccc(NC(=O)c2ccc(F)c(C3CC3)n2)c1	2.51	>=7.5	1.01	1.01	0.101	0.601	<=1	<=0.05	<=1	>=1.001	< 100
Cn1cnnc1CC1(c2cccc(N3Cc4c(cc(CO)cc4C(F)(F)F)C3=O)c2)COC1	5	>=7.5	1.51	2.51	0.051	0.601	1.01	0.101	1.31	0.601	< 100
C[C@H](Cc1nocc1C(F)(F)F)c1cccc(N2Cc3c(cc(C(=O)N4CC[C@H](F)C4)cc3C(F)(F)F)C2=O)c1	1.01	2.51	1.31	1.01	0.101	0.601	1.01	<=0.05	1.01	>=1.001	≤ 300
C[C@H](Cc1nncn1C)c1cc(NC2COC2)nc(N2Cc3c(cccc3C(F)(F)F)C2=O)c1	1.01	5	1.31	1.01	>=0.201	0.801	1.01	0.051	1.01	>=1.001	< 100
C[C@H](Cc1nncn1C)c1cccc(NC(=O)c2cccc(C(C)(C)C)n2)c1	2.51	2.51	1.01	1.01	>=0.201	0.801	1.01	0.051	1.01	>=1.001	< 100
Cc1cc(C(=O)Nc2cccc(C3(Cc4nncn4C)COC3)c2)nc(C(F)(F)F)n1	2.51	>=7.5	1.01	1.01	>=0.201	0.801	1.01	0.101	1.01	>=1.001	< 100
C[C@H](Sc1nncn1C)c1cccc(NC(=O)c2cc(C3CC3)cc(C(F)(F)F)n2)c1	1.01	2.51	1.01	1.01	0.101	0.801	1.01	<=0.05	1.01	>=1.001	< 100
Cc1cc(C(=O)Nc2cccc([C@H](C)Cc3nncn3C)c2)nc(C(F)(F)F)n1	>=7.5	>=7.5	>=1.76	2.51	>=0.201	0.801	1.01	>=0.201	1.51	>=1.001	< 100
C[C@H](Cc1nncn1C)c1cccc(NC(=O)c2cc3cc(N4CCN(C)C(=O)C4)ccc3cn2)c1.O=C(O)C(F)(F)F	5	>=7.5	1.51	5	>=0.201	<=0.6	1.31	>=0.201	1.31	>=1.001	< 100
C[C@H](Cc1nncn1C)c1cccc(N2Cc3c(cc(C(=O)N4CC(O)C4)cc3C(F)(F)F)C2=O)c1	2.51	>=7.5	1.31	1.01	0.151	0.801	1.01	0.051	1.01	>=1.001	< 100
Cn1cnnc1CC(C)(C)c1cccc(N2Cc3c(cccc3C(F)(F)F)C2=O)c1	2.51	>=7.5	1.51	1.01	>=0.201	0.801	1.01	>=0.201	1.01	>=1.001	< 100
C[C@H](Cc1nncn1C)c1cccc(N2Cc3c(cc([C@H](C)N4CC(O)C4)cc3C(F)(F)F)C2=O)c1	>=7.5	>=7.5	1.31	5	>=0.201	>=1.001	1.01	>=0.201	1.31	>=1.001	< 100
